Experimental data taken from US20070128217A1 (priority 2003, published 2007).

Legend:
[1] = system: antibodies in sera from SARS patients (sera 1a, 1b, 2, 6, 37, 62, London, SARS-yellow, SARS-green); assay type: binding, human; set-up: Binding of serum 6 to linear peptides of protein X1 of SARS-CoV Urbani / Binding of serum 37 to linear peptides of protein X1 of SARS-CoV Urbani / Binding of serum 6 to looped/cyclic peptide (PEPSCAN-ELISA) / Binding of serum 37 to looped/cyclic peptide (PEPSCAN-ELISA) / Binding of serum 37 to looped/cyclic peptides of protein X1 of SARS-CoV Urbani / Binding of serum 6 to linear peptides of protein X2 / Binding of serum 37 to linear peptides of protein X2 / Binding of serum 37 to looped/cyclic peptides of protein X2 of SARS-CoV Urbani / Binding of serum 6 to linear peptides of protein M of SARS-CoV Urbani / Binding of serum 37 to linear peptides of protein M of SARS-CoV Urbani / Binding of serum 6 to looped/cyclic peptides of protein M of SARS-CoV Urbani / Binding of serum 37 to looped/cyclic peptides of protein M of SARS-CoV Urbani / Binding of serum 6 to linear peptides of protein X3 of SARS-CoV Urbani / Binding of serum 37 to linear peptides of protein X3 of SARS-CoV Urbani / Binding of serum 37 to looped/cyclic peptides of protein X3 of SARS-CoV Urbani / Binding of serum 6 to linear peptides of protein X4 of SARS-CoV Urbani / Binding of serum 37 to linear peptides of protein X4 of SARS-CoV Urbani / Binding of serum 37 to looped/cyclic peptides of protein X4 of SARS-CoV Urbani / Binding of serum 6 to linear peptides of protein X5 of SARS-CoV Urbani / Binding of serum 37 to linear peptides of protein X5 of SARS-CoV Urbani / Binding of serum 37 to looped/cyclic peptides of protein X5 of SARS-CoV Urbani / Binding of serum 6 to linear peptides of protein N of SARS-CoV Urbani / Binding of serum 37 to linear peptides of protein N of SARS-CoV Urbani / Binding of serum 6 to linear peptide (PEPSCAN-ELISA) / Binding of serum 1a to looped/cyclic peptides of protein N of SARS-CoV Urbani / Binding of serum 1b to looped/cyclic peptides of protein N of SARS-CoV Urbani / Binding of serum 2 to looped/cyclic peptides of protein N of SARS-CoV Urbani / Binding of serum 6 to looped/cyclic peptides of protein N of SARS-CoV Urbani / Binding of serum 37 to looped/cyclic peptides of protein N of SARS-CoV Urbani / Binding of serum 62 to looped/cyclic peptides of protein N of SARS-CoV Urbani / Binding of serum London to looped/cyclic peptides of protein N of SARS-CoV Urbani / Binding of serum SARS-green to looped/cyclic peptides of protein N of SARS-CoV Urbani: unit not given here
[2] = system: control sera (pooled serum of ten healthy LUMC hospital workers; commercial negative donor pooled serum from the Dutch bloodbank); assay type: binding, human; set-up: Binding of Control serum LUMC to linear peptides / Binding of Control serum Blood-bank to linear peptides / Binding of Control serum LUMC to looped peptides / Binding of Control Serum Blood-Bank to Looped peptides / Binding of Control serum LUMC to linear peptides of the protein M of SARS-CoV Urbani / Binding of Control serum Blood-bank to linear peptides of the protein M of SARS-CoV Urbani / Binding of Control serum LUMC to looped peptides of the protein M of SARS-CoV Urbani / Binding of Control Serum Blood-Bank to Looped peptides of the protein M of SARS-CoV Urbani: unit not given here
[3] = system: rabbit serum obtained by immunizing a rabbit with the SARS-CoV strain Frankfurt 1; assay type: binding; set-up: Binding of a rabbit serum to linear peptides / Binding of a rabbit serum to looped peptides / Rabbit serum linear peptides / Rabbit serum looped peptides / Binding of a rabbit serum to linear peptides of protein N of SARS-CoV Urbani (Rabbit serum linear peptides) / Binding of a rabbit serum to looped/cyclic peptides of protein N of SARS-CoV Urbani (Rabbit serum looped peptides): unit not given here
[4] = system: recombinant human anti-SARS-CoV antibody 03-018; assay type: binding; set-up: Binding of antibody 03-018 to linear peptides of the N protein of SARS-CoV Urbani / Binding of antibody 03-018 to looped/cyclic peptides of the N protein of SARS-CoV Urbani: unit not given here

Sequence | Binding of serum 1a to linear peptides of protein N of SARS-CoV Urbani [1] | Binding of serum 1a to looped/cyclic peptides of protein N of SARS-CoV Urbani [1] | Binding of serum 1b to linear peptides of protein N of SARS-CoV Urbani [1] | Binding of serum 1b to looped/cyclic peptides of protein N of SARS-CoV Urbani [1] | Binding of serum 2 to linear peptides of protein N of SARS-CoV Urbani [1] | Binding of serum 2 to looped/cyclic peptides of protein N of SARS-CoV Urbani [1] | Binding of serum 6 to linear peptides of protein N of SARS-CoV Urbani [1] | Binding of serum 6 to looped/cyclic peptides of protein N of SARS-CoV Urbani [1] | Binding of serum 37 to linear peptides of protein N of SARS-CoV Urbani [1] | Binding of serum 37 to looped/cyclic peptides of protein N of SARS-CoV Urbani [1] | Binding of serum 62 to linear peptides of protein N of SARS-CoV Urbani [1] | Binding of serum 62 to looped/cyclic peptides of protein N of SARS-CoV Urbani [1] | Binding of serum London to linear peptides of protein N of SARS-CoV Urbani [1] | Binding of serum London to looped/cyclic peptides of protein N of SARS-CoV Urbani [1] | Binding of serum SARS-green to linear peptides of protein N of SARS-CoV Urbani [1] | Binding of serum SARS-green to looped/cyclic peptides of protein N of SARS-CoV Urbani [1] | Binding of serum SARS-yellow to linear peptides of protein N of SARS-CoV Urbani [1] | Binding of serum SARS-yellow to looped/cyclic peptides of protein N of SARS-CoV Urbani [1] | Binding of a rabbit serum to linear peptides of protein N of SARS-CoV Urbani (Rabbit serum linear peptides) [3] | Binding of a rabbit serum to looped/cyclic peptides of protein N of SARS-CoV Urbani (Rabbit serum looped peptides) [3] | other results
SAFFGMSRIGMEVTP | 0.3 | 0.4 | 0.2 | 0.3 | 0.2 | 0.4 | 0.2 | 0.2 | 0.7 | 0.5 | 0.8 | 0.4 | 0.6 | 0.4 | 0.3 | 0.4 | 0.7 | 0.5 | 0.2 | 0.5 | Control Serum Blood-Bank Looped peptides [2]: 0.6; Control serum Blood-bank linear peptides [2]: 0.8; Control serum LUMC linear peptides [2]: 0.7; Control serum LUMC looped peptides [2]: 0.5; Binding of antibody 03-018 to linear peptides of the N protein of SARS-CoV Urbani [4]: 0.1; Binding of antibody 03-018 to looped/cyclic peptides of the N protein of SARS-CoV Urbani [4]: 0.2
SAPRITFGGPTDSTD | 0.2 | 0.3 | 0.2 | 0.2 | 0.1 | 0.2 | 0.1 | 0.1 | 0.7 | 0.5 | 0.6 | 0.3 | 0.5 | 0.3 | 0.6 | 0.9 | 0.4 | 0.4 | 0.2 | 0.5 | Binding of Control Serum Blood-Bank to Looped peptides [2]: 0.5; Binding of Control serum Blood-bank to linear peptides [2]: 0.4; Binding of Control serum LUMC to linear peptides [2]: 0.5; Binding of Control serum LUMC to looped peptides [2]: 0.4; Recognition of the peptide by antibody 03-018 [4]: recognized
SASAFFGMSRIGMEV | 0.3 | 0.5 | 0.2 | 0.3 | 0.2 | 0.6 | 0.2 | 0.5 | 0.7 | 0.8 | 0.6 | 0.6 | 0.5 | 1.6 | 0.4 | 0.4 | 0.7 | 0.9 | 0.1 | 0.6 | Control Serum Blood-Bank Looped peptides [2]: 0.7; Control serum Blood-bank linear peptides [2]: 0.7; Control serum LUMC linear peptides [2]: 0.6; Control serum LUMC looped peptides [2]: 0.7; Binding of antibody 03-018 to linear peptides of the N protein of SARS-CoV Urbani [4]: 0.1; Binding of antibody 03-018 to looped/cyclic peptides of the N protein of SARS-CoV Urbani [4]: 0.2
SKKPRQKRTATKQYN |  | 0.3 |  | 0.1 |  | 0.4 |  | 0.3 |  | 0.6 |  | 0.6 |  | 0.5 |  | 0.1 |  | 0.3 | 0.2 | 0.1 | Binding of serum 1a to linear peptide (PEPSCAN-ELISA) [1]: 0.2; Binding of serum 1b to linear peptide (PEPSCAN-ELISA) [1]: 0.1; Binding of serum 2 to linear peptide (PEPSCAN-ELISA) [1]: 0.3; Binding of serum 6 to linear peptide (PEPSCAN-ELISA) [1]: 0.2; Binding of serum 37 to linear peptide (PEPSCAN-ELISA) [1]: 0.6; Binding of serum 62 to linear peptide (PEPSCAN-ELISA) [1]: 0.7; Binding of serum London to linear peptide (PEPSCAN-ELISA) [1]: 0.5; Binding of serum SARS-green to linear peptide (PEPSCAN-ELISA) [1]: 0.1; Binding of serum SARS-yellow to linear peptide (PEPSCAN-ELISA) [1]: 0.4; Binding of Control Serum Blood-Bank to Looped peptides [2]: 0.6; Binding of Control serum Blood-bank to linear peptides [2]: 0.8; Binding of Control serum LUMC to linear peptides [2]: 0.7; Binding of Control serum LUMC to looped peptides [2]: 0.5; Binding of antibody 03-018 to linear peptides of the N protein of SARS-CoV Urbani [4]: 0.1; Binding of antibody 03-018 to looped/cyclic peptides of the N protein of SARS-CoV Urbani [4]: 0.2
